The values that follow are results of earlier work, collected in patent publication US20020148003A1, “Transgenic plant or plants with a naturally high water content overproducing at least two amino acids of the aspartate family” (AVEBE, priority 1996, published 2002).

Series [1] deals with plant dihydrodipicolinate synthase (DHPS).
Series [2] concerns the target plant aspartate kinase (AK) sensitive to lysine. As to conditions: plant AKs, lysine inhibition; read-out: I50 of plant AKs sensitive to lysine.
Series [3] has as its target E. coli DHPS (Escherichia coli, UniProt P0A6L2). The settings on record: lysine inhibition, read-out: I50 of E. coli DHPS for lysine.

Chain of E. coli DHPS (P0A6L2 whole entry): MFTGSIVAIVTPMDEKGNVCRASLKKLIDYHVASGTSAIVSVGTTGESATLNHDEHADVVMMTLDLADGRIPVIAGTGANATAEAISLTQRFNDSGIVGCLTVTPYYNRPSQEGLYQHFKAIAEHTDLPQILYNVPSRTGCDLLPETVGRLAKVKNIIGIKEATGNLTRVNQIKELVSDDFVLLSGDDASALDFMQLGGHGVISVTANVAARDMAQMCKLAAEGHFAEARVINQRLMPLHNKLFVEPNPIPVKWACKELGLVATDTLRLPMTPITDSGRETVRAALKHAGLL

In the case of `NCCCC[C@H](N)C(=O)O` [lysine], the “sensitivity to lysine inhibition, plant DHPS versus E. coli DHPS” value in series [1] (plant DHPS more sensitive than E. coli DHPS) was “about 100 fold”. For the same compound, in series [1] (plant DHPS more sensitive than lysine-sensitive plant AKs), the “sensitivity to lysine inhibition, plant DHPS versus plant AKs” value is given as “about 10 fold”. Besides, the IC50 was 10 to 50 µM in series [1] (plant DHPS, feedback inhibition by end product, read-out: I50 of DHPS for lysine); 100 to 700 µM in series [2]; approximately 1000 µM in series [3].
